Experimental data reported in patent US20200339691A1, “PROTEINACEOUS MOLECULES AND USES THEREFOR” (priority 2018, published 2020).
Where a SMILES comes first, the peptide text is derived from it. The star is where a group is joined. Myristoyl = CCCCCCCCCCCCCC(=O)*

What was measured:
MDA-MB-231 cells = assay type: cell-based, human; settings: 50 μM peptide, 48 hours, n = 1
Excerpt: (§1) Non-adherent cells were removed during the washing steps.

[1] = tested on: CD44^hiCD24^lo CSCs in MDA-MB-231 cells; assay: FACS analysis of CD44^hiCD24^lo cancer stem cells in MDA-MB-231 cells treated with P1 analogues; assay type: cell-based, human; settings: 50 μM peptide, 48 hours; for CD44^hiCD24^lo CSCs (%) / COI, Live Single CD44^hiCD24^lo CSCs (Cell Count): n = 1; for Average Inhibition of CSCs (%) / CD44^hiCD24^lo CSCs (%) Repeat 1 / CD44^hiCD24^lo CSCs (%) Repeat 2 / CD44^hiCD24^lo CSCs (%) Repeat 3: n = 3
Procedure: Analogues of P1 (Table 6) were designed and synthesized in accordance with the procedure of Example 5. The ability of these analogues to inhibit cancer stem cells was determined using FACS analysis on MDA-MB-231 cells, which constitutively contain approximately 90% CD44^hiCD24^lo cancer stem cells, treated with the peptides.
as §1
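Throughout, for COI, Live Single Cells (Cell Count): live means Hoechst-negative events among single cells.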

SMILES | COI (Cell Count) (MDA-MB-231 cells) | COI, Live Single Cells (Cell Count) (MDA-MB-231 cells) | COI, Single (Cell Count) (MDA-MB-231 cells) | Total Cell Count (MDA-MB-231 cells) | Inhibition of CSCs (%) Repeat 1 [1] | Inhibition of CSCs (%) Repeat 2 [1] | Inhibition of CSCs (%) Repeat 3 [1] | CD44^hiCD24^lo CSCs (%) [1] | COI, Live Single CD44^hiCD24^lo CSCs (Cell Count) [1] | Average Inhibition of CSCs (%) [1] | CD44^hiCD24^lo CSCs (%) Repeat 1 [1] | CD44^hiCD24^lo CSCs (%) Repeat 2 [1] | CD44^hiCD24^lo CSCs (%) Repeat 3 [1]
CCCCCCCCCCCCCC(=O)N[C@@H](CC(C)C)C(=O)N[C@H](C(=O)N[C@@H](Cc1ccccc1)C(=O)N[C@H](C(=O)N[C@@H](Cc1ccccc1)C(=O)N[C@H](C(=O)N[C@@H](CC(C)C)C(=O)N[C@@H](CCCNC(=N)N)C(=O)N[C@@H](CCCCN)C(=O)NCC(=O)N[C@@H](CCCNC(=N)N)C(=O)N[C@@H](CCSC)C(=O)N[C@@H](CCSC)C(=O)N[C@@H](CC(=O)O)C(=O)N[C@H](C(=O)N[C@@H](CCCCN)C(=O)N[C@@H](CCCCN)C(N)=O)C(C)C)C(C)C)[C@@H](C)CC)[C@@H](C)O [Peptide 2853818, Myristoyl-LTFIFVLRKGRMMDVKK-NH2] (Myristoyl-LTFIFVLRKGRMMDVKK-NH2) | 33 | 20 | 25 | 275 | 88.46% | 97.94% | 93.25% | 25.00% | 5 | 93.21% | 10.34% | 1.85% | 6.06%
CCCCCCCCCCCCCC(=O)N[C@@H](CC(C)C)C(=O)N[C@H](C(=O)N[C@@H](Cc1ccccc1)C(=O)N[C@H](C(=O)N[C@@H](Cc1ccccc1)C(=O)N[C@@H](CCCNC(=N)N)C(=O)N[C@@H](CC(C)C)C(=O)N[C@@H](CCCNC(=N)N)C(=O)N[C@@H](CCCCN)C(=O)N[C@H](C(=O)N[C@@H](CCCNC(=N)N)C(=O)N[C@@H](CCSC)C(=O)N[C@@H](CCSC)C(=O)N[C@@H](CC(=O)O)C(=O)N[C@H](C(=O)N[C@@H](CCCCN)C(=O)N[C@@H](CCCCN)C(N)=O)C(C)C)C(C)C)[C@@H](C)CC)[C@@H](C)O [Peptide 2853829, Myristoyl-LTFIFRLRKVRMMDVKK-NH2] (Myristoyl-LTFIFRLRKVRMMDVKK-NH2) | 167 | 68 | 131 | 10000 | 89.50% | 91.73% | 94.67% | 5.88% | 4 | 91.97% | 9.41% | 7.42% | 4.79%
CCCCCCCCCCCCCC(=O)N[C@@H](CC(C)C)C(=O)N[C@H](C(=O)N[C@@H](CCC(=O)O)C(=O)N[C@H](C(=O)N[C@@H](Cc1ccccc1)C(=O)N[C@@H](CCCNC(=N)N)C(=O)N[C@@H](CC(C)C)C(=O)N[C@@H](CCCNC(=N)N)C(=O)N[C@@H](CCCCN)C(=O)NCC(=O)N[C@@H](CCCNC(=N)N)C(=O)N[C@@H](CCSC)C(=O)N[C@@H](CCSC)C(=O)N[C@@H](CC(=O)O)C(=O)N[C@H](C(=O)N[C@@H](CCCCN)C(=O)N[C@@H](CCCCN)C(N)=O)C(C)C)[C@@H](C)CC)[C@@H](C)O [Peptide 2853807, Myristoyl-LTEIFRLRKGRMMDVKK-NH2] (Myristoyl-LTEIFRLRKGRMMDVKK-NH2) | 690 | 168 | 439 | 3558 | 84.07% | 81.60% | 86.81% | 11.31% | 19 | 84.16% | 14.28% | 16.51% | 11.84%
CCCCCCCCCCCCCC(=O)N[C@@H](CC(C)C)C(=O)N[C@H](C(=O)N[C@@H](Cc1ccccc1)C(=O)N[C@H](C(=O)N[C@@H](Cc1ccccc1)C(=O)N[C@@H](CCCNC(=N)N)C(=O)N[C@@H](CC(C)C)C(=O)N[C@@H](CCCNC(=N)N)C(=O)N[C@@H](CCCCN)C(=O)NCC(=O)N[C@@H](CCCNC(=N)N)C(=O)N[C@@H](CCSC)C(=O)N[C@@H](CCSC)C(=O)N[C@H](C(=O)N[C@H](C(=O)N[C@@H](CCCCN)C(=O)N[C@@H](CCCCN)C(N)=O)C(C)C)C(C)C)[C@@H](C)CC)[C@@H](C)O [Peptide 2853837, Myristoyl-LTFIFRLRKGRMMVVKK-NH2] (Myristoyl-LTFIFRLRKGRMMVVKK-NH2) | 452 | 235 | 364 | 4805 | 93.82% | 93.76% | 88.86% | 5.53% | 13 | 92.15% | 5.54% | 5.59% | 10.00%
CCCCCCCCCCCCCC(=O)N[C@@H](CC(C)C)C(=O)N[C@H](C(=O)N[C@@H](Cc1ccccc1)C(=O)N[C@H](C(=O)N[C@@H](Cc1ccccc1)C(=O)N[C@@H](CCCNC(=N)N)C(=O)N[C@@H](CC(C)C)C(=O)N[C@@H](CCCNC(=N)N)C(=O)N[C@@H](CCCCN)C(=O)NCC(=O)N[C@@H](CCCNC(=N)N)C(=O)N[C@@H](CCSC)C(=O)N[C@@H](CCSC)C(=O)N[C@@H](CC(=O)O)C(=O)N[C@H](C(=O)N[C@@H](CCC(=O)O)C(=O)N[C@@H](CCCCN)C(N)=O)C(C)C)[C@@H](C)CC)[C@@H](C)O [Peptide 2853841, Myristoyl-LTFIFRLRKGRMMDVEK-NH2] (Myristoyl-LTFIFRLRKGRMMDVEK-NH2) | 2072 | 1289 | 1594 | 6480 | 78.06% | 79.59% | 80.30% | 11.40% | 147 | 79.32% | 19.67% | 18.31% | 17.67%
CCCCCCCCCCCCCC(=O)N[C@H](C(=O)N[C@@H](Cc1ccccc1)C(=O)N[C@H](C(=O)N[C@@H](Cc1ccccc1)C(=O)N[C@@H](CCCNC(=N)N)C(=O)N[C@@H](CC(C)C)C(=O)N[C@@H](CCCNC(=N)N)C(=O)N[C@@H](CCCCN)C(=O)NCC(=O)N[C@@H](CCCNC(=N)N)C(=O)N[C@@H](CCSC)C(=O)N[C@@H](CCSC)C(=O)N[C@@H](CC(=O)O)C(=O)N[C@@H](C)C(=O)N[C@@H](CCCCN)C(=O)N[C@@H](CCCCN)C(N)=O)[C@@H](C)CC)[C@@H](C)O [Peptide 2815315, Myristoyl-TFIFRLRKGRMMDAKK-NH2] (Myristoyl-TFIFRLRKGRMMDAKK-NH2) | 51 | 16 | 41 | 12122 | 86.74% | 82.99% | 83.97% | 18.75% | 3 | 84.57% | 11.89% | 15.26% | 14.39%
CCCCCCCCCCCCCC(=O)N[C@@H](CC(C)C)C(=O)N[C@H](C(=O)N[C@@H](Cc1ccccc1)C(=O)N[C@H](C(=O)N[C@@H](Cc1ccccc1)C(=O)N[C@@H](CCCNC(=N)N)C(=O)N[C@@H](CC(C)C)C(=O)N[C@@H](CCCNC(=N)N)C(=O)N[C@@H](CCCCN)C(=O)NCC(=O)N[C@@H](CCCNC(=N)N)C(=O)N[C@@H](CCSC)C(=O)N[C@@H](CCSC)C(=O)N[C@@H](CC(=O)O)C(=O)N[C@H](C(=O)N[C@@H](CCCNC(=N)N)C(=O)N[C@@H](CCCCN)C(N)=O)C(C)C)[C@@H](C)CC)[C@@H](C)O [Peptide 2853840, Myristoyl-LTFIFRLRKGRMMDVRK-NH2] (Myristoyl-LTFIFRLRKGRMMDVRK-NH2) | 709 | 308 | 487 | 3715 | 82.01% | 81.08% | 83.80% | 18.83% | 58 | 82.30% | 16.13% | 16.97% | 14.54%
CCCCCCCCCCCCCC(=O)N[C@@H](CC(C)C)C(=O)N[C@H](C(=O)N[C@@H](Cc1ccccc1)C(=O)N[C@H](C(=O)N[C@@H](Cc1ccccc1)C(=O)N[C@@H](CCCNC(=N)N)C(=O)N[C@@H](CC(C)C)C(=O)N[C@@H](CCCNC(=N)N)C(=O)N[C@@H](CCCCN)C(=O)NCC(=O)N[C@@H](CCCNC(=N)N)C(=O)N[C@@H](CCSC)C(=O)N[C@@H](CCSC)C(=O)N[C@@H](CCCCN)C(=O)N[C@H](C(=O)N[C@@H](CCCCN)C(=O)N[C@@H](CCCCN)C(N)=O)C(C)C)[C@@H](C)CC)[C@@H](C)O [Peptide 2853836, Myristoyl-LTFIFRLRKGRMMKVKK-NH2] (Myristoyl-LTFIFRLRKGRMMKVKK-NH2) | 761 | 86 | 547 | 5448 | 88.84% | 82.17% | 86.35% | 9.30% | 8 | 85.79% | 10.00% | 16.00% | 12.24%
